# Measurements from US10821152B2, “Methods, agents and compositions for treatment of inflammatory conditions” (Betanien Hospital, priority 2014, dated 2020).
# Read-outs that look alike come from different tables or passages of the source. Non-standard residues stand in square brackets, D forms with d. Residues, ends and D or L forms follow the SMILES beside them. dPhe(4-Cl) = N[C@H](Cc1ccc(Cl)cc1)C(=O)O; d2Nal = N[C@H](Cc1ccc2ccccc2c1)C(=O)O; dCit = NC(=O)NCCC[C@@H](N)C(=O)O; d3Pal = N[C@H](Cc1cccnc1)C(=O)O
# Tests used:
# [1] = system: patient with systemic lupus erythematosus; experiment: Previous therapies for pain in extremities of the lupus patient; type: in vivo, human; conditions: previous therapies before degarelix
# Method: Due to their painful condition, they have been followed up by a pain clinic. They were offered a tricyclic antidepressant, amitriptyline 25 mg in March 2014 for their painful condition.
# [2] = system: patient with ankylosing spondylitis; experiment: Treatment of ankylosing spondylitis patient (BASDAI, laboratory variables); type: in vivo, human; conditions: AS patient
# Excerpt: Diagnosed with ankylosing spondylitis in 1984, HLAB27 positive, with repeated iridocyclitis. Used non-steroidal anti-inflammatory drugs previously. They were offered the TNF-alpha inhibitor Golilimumab in 2010. Their disease activity score was 8.9 in October 2010 (see below for explanation of disease activity score) on initiating Golilimumab; by the June 2012 this score had reduced to 6.6, but by May 2013 the effect had worn off and their score was 7.6. May 2013, they initiated Enbrel treatment, but their disease activity increased from 7.6 to 8.3. Due to their poor response to TNF-alpha therapy, they were offered the GnRH antagonist Degarelix in September 2014.
# Disease activity in ankylosing spondylitis is measured by the BASDAI (Bath Ankylosing Spondylitis Disease Activity Index1), has been extensively validated in clinical trials, 2, 3 and is one of the most commonly used outcome measures in clinical trials. This is a componsite index that evaluates fatigue, axial and peripheral pain, stiffness and enthesopathy. Their BASDAI was at 8.7 at baseline. In September 2014 they received their first dose of Degarelix 240 mg sc. By 2 weeks, their BASDAI had reduced to 6.8, and by 6 weeks it had reduced to 5.8. This is the lowest BASDAI score they have ever had since we first started using this method of assessment 4 years ago in 2010. Their morning stiffness lasted 4 hours at baseline, by 6 weeks their morning stiffness had reduced to 2 hours. They had their second dose of Degarelix 80 mg s.c in October 2014. Lumbar flexion and maximum arm abduction were increased after 6 weeks of treatment.
# Response to therapy in clinical practice is defined as improvement of 2 units or 50% on a 0-10 scale of the BASDAI, and expert opinion that the treatment should be continued. Their reduction by 6 weeks was 2.9 units, and 7.1 units with an 82% BASDAI score improvement by 9 weeks, and we shall continue treatment. A BASDAI 50% improvement is defined as a major clinical response. […] For comparison, approximately 50-60% of patients achieve a BASDAI 50 by 12 weeks on TNF inhibitors (4). Their ESR has decreased from 46 mm to 23 mm, which is their lowest ESR reading in 19 years. […] By 9 weeks of GnRH antagonist therapy, their kidney function has normalized, and fasting glucose reduced from 7.4 to 6.5 mmol/L. By 3 months, the effect on their ankylosing spondylitis remained, creatinine was at 98 umol/L, with a glomerular filtration rate of 66 ml/min/1.73 m2 in December 2014.
# [3] = system: patient with seropositive rheumatoid arthritis; experiment: Example treatment of RA using oral GnRH antagonists (DAS); type: in vivo, human
# Method: • person with seropositive rheumatoid arthritis with disease duration of 10 years. • Fulfills ACR 2010 classification criteria for rheumatoid arthritis. Experimental Treatment • Is offered experimental GnRH antagonist therapy, Elagolix 550 mg daily for 12 weeks.
# • person with seropositive rheumatoid arthritis with disease duration of 10 years. • Fulfills ACR 2010 classification criteria for rheumatoid arthritis. Experimental Treatment • Is offered experimental GnRH antagonist therapy, Relugolix 250 mg daily for 12 weeks.
# • person with seropositive rheumatoid arthritis with disease duration of 20 years. • Fulfills ACR 2010 classification criteria for rheumatoid arthritis. Experimental Treatment • Treated with a spiroindoline derivative as a GnRH antagonist orally 200 mg daily for 12 weeks.
# [4] = system: patient with spondyloarthritis; experiment: Example treatment of spondyloarthritis using Relugolix; type: in vivo, human
# Method: • person with spondyloarthritis with disease duration of 5 years. Experimental Treatment • Is offered experimental GnRH antagonist therapy, Relugolix 400 mg daily for 12 weeks. Assessment of Response at 4 Months • Disease activity in ankylosing spondylitis/spondyloarthritis is measured by the BASDAI score. Their BASDAI is 5 at baseline.
# patient with colitis = conditions: week 2 after an infliximab infusion, literature; cited from earlier work
# [5] = system: patient with seropositive rheumatoid arthritis; experiment: Treatment of rheumatoid arthritis using Cetrorelix; type: in vivo, human; conditions: RA patient
# Method: • person with seropositive rheumatoid arthritis with disease duration of 10 years. • Fulfilled ACR 2010 classification criteria for rheumatoid arthritis. Experimental Treatment • Had tried all therapies available previously without effect. • Offered experimental GnRH antagonist therapy, Cetrorelix in 0.5 mg sc daily in October 2014, then 0.75 mg sc daily in December 2014.
# mice = experiment: Animal study of preventing age related inflammation; type: in vivo; conditions: 0.5 mg/kg daily with or without gonadal hormone replacement, vs placebo
# Method: An animal study is conducted with 40 fertile female mice aged approximately 6-20 months in a control group (group 1) receiving placebo, 40 age and sex matched mice receiving a drug that reduces the activity of GnRH (group 2), such as Cetrorelix 0.5 mg/kg daily, and 40 age and sex matched mice receiving the same GnRH inhibitor as group 2, but with the additional replacement of gonadal hormone (oestrogen) to age adjusted pre-chosen levels. All mice are followed prospectively, and evaluated for systemic inflammation markers, atherosclerosis, osteoporosis, LDL, and age at death. The same three interventions and assessments are carried out in three groups of male mice with 40 male mice in each group, aged approximately 6-20 months, replacing the gonadal hormone testosterone to pre-chosen levels in group 3. Mice treated with a drug that reduces the activity of GnRH, such as Cetrorelix 0.5 mg/kg daily with or without the replacement of gonadal hormone (preferably with) reach a higher age at death compared with mice in the placebo groups. These mice also show less atherosclerosis, osteoporosis and systemic inflammation than mice in the placebo groups.
# [6] = system: patients with active longstanding RA; experiment: Double-blinded randomised study of cetrorelix vs placebo in RA (NCT00667758), serum P1NP; type: in vivo, human
# Method: In this double-blinded, single-site study in Norway (ClinicalTrials.gov NCT00667758), 99 patients with active longstanding RA, were randomised to predefined intention-to-treat populations using computer-generated allocation (1:1) in dynamic blocks stratified for sex. Patients were assigned to subcutaneous cetrorelix (n=48) (5 mg days 1-2, 3 mg days 3-5) or placebo (n=51). P1NP was measured on day 10. We investigated serum P1NP between groups, a predefined secondary endpoint. Detailed efficacy and safety data are presented separately.
# [7] = system: patient with osteoarthritis of both knees; experiment: Intra-articular GnRH inhibiting treatment in osteoarthritis; type: in vivo, human; conditions: intra-articular 1 mg into both knees, 2 week post injection
# Excerpt: • person with osteoarthritis of both knees diagnosed by x-ray 10 years ago • Has had synovitis secondary to osteoarthritis in both knees for the last month, confirmed by synovitis on ultrasound. Experimental Treatment • In order to treat the secondary inflammation as a result of their knee osteoarthritis, they are offered intra-articular GnRH antagonist treatment, for example Cetrorelix lmg injected into both knees. Subcutaneous Cetrorelix for injection can be used. Assessment of Response • Before and 2 week post injection ultrasound images are taken to show a decrease in synovitis in the knee joint.
# [8] = system: patients with rheumatoid arthritis; conditions: AGRA study, 5 days, Kass et al. 2014; cited from earlier work
# [9] = system: patient with lithium induced psoriasis; conditions: 15 patients with psoriasis taking lithium, pretreatment, literature; cited from earlier work
# [10] = system: patient with systemic sclerosis; conditions: Cyclophosphamide trial, literature, cited from earlier work
compound,measurement,setting,value
NCC1(CC(=O)O)CCCCC1 [gabapentin],effect on pain in extremities,[1],no effect
Golilimumab: TNF-alpha inhibitor,disease activity score (BASDAI),[2]; June 2012 on Golilimumab,6.6
same,disease activity score (BASDAI),"[2]; May 2013 on Golilimumab, effect worn off",7.6
same,disease activity score (BASDAI),"[2]; October 2010, on initiating Golilimumab",8.9
CN(Cc1cnc2nc(N)nc(N)c2n1)c1ccc(C(=O)N[C@@H](CCC(=O)O)C(=O)O)cc1 [methotrexate],effect on pain in extremities,[1],not effective
CC(C)C[C@H](CN)CC(=O)O [pregabalin],effect on pain in extremities,[1],no effect
Enbrel,disease activity (BASDAI),"[2]; May 2013, on initiating Enbrel",7.6
same,disease activity (BASDAI),[2]; after Enbrel treatment,8.3
CONC(=O)Nc1ccc(-c2sc3c(c2CN(C)C)c(=O)n(-c2ccc(OC)nn2)c(=O)n3Cc2c(F)cccc2F)cc1 [Relugolix],Eular response,"[3]; Relugolix 250 mg daily for 12 weeks, assessment at 4 months",Good Eular Response
same,Disease activity score (DAS),"[3]; Relugolix 250 mg daily for 12 weeks, assessment at 4 months (remission)",2.5
same,Disease activity score (DAS),[3]; before Relugolix,3.5
same,BASDAI,"[4]; Relugolix 400 mg daily, at 12 weeks (remission)",1.2
same,BASDAI,[4]; baseline,5
infliximab: anti-tumour necrosis factor-α,Fecal calprotectin concentration,patient with colitis,decreases significantly
CN(C)CCC=C1c2ccccc2CCc2ccccc21 [amitriptyline],effect on pain in extremities,[1],no effect
COc1c(C)c2c(c(O)c1C/C=C(\C)CCC(=O)OCCN1CCOCC1)C(=O)OC2 [mycophenolate mofetil],effect on pain in extremities,[1],not effective
Cn1cnc([N+](=O)[O-])c1Sc1ncnc2nc[nH]c12 [azathioprine],effect on pain in extremities,[1],not effective
CC(=O)N[C@H](Cc1ccc2ccccc2c1)C(=O)N[C@H](Cc1ccc(Cl)cc1)C(=O)N[C@H](Cc1cccnc1)C(=O)N[C@@H](CO)C(=O)N[C@@H](Cc1ccc(O)cc1)C(=O)N[C@H](CCCNC(N)=O)C(=O)N[C@@H](CC(C)C)C(=O)N[C@@H](CCCNC(=N)N)C(=O)N1CCC[C@H]1C(=O)N[C@H](C)C(N)=O [Cetrorelix] (Ac-[d2Nal][dPhe(4-Cl)][d3Pal]SY[dCit]LRP[dA]-NH2),CRP,[5]; at 12 weeks,18 mg/L
same,ESR,[5]; at 12 weeks,28 mm
same,rheumatoid factor level,[5]; at 12 weeks,111 kIU/L
same,Disease activity score (DAS),"[5]; at 12 weeks, 0.5 then 0.75 mg sc daily",5.5
same,CRP,[5]; before Cetrorelix,41 mg/L
same,Disease activity score (DAS),[5]; before Cetrorelix,6.1
same,ESR,[5]; before Cetrorelix,35 mm
same,rheumatoid factor level,[5]; before Cetrorelix,137 kIU/L
same,age at death,mice,higher
same,"atherosclerosis, osteoporosis and systemic inflammation",mice,less
same,P1NP mean difference vs placebo,"[6]; by day 10, 95% CI −6.62, −0.29, p=0.033",-3.45 µg/L
same,P1NP change,"[6]; cetrorelix group (n=48), 5 mg days 1-2, 3 mg days 3-5, by day 10",-4.21 µg/L
same,disease activity markers and TNF-α (log pg/mL),[6]; cetrorelix vs placebo,significant reductions
same,synovitis in the knee joint on ultrasound,[7],decrease
same,TNF-α,[8],possible reduction
same,primary end-point with regard to clinical response,[8],did not meet the primary end-point
O[C@H]1[C@H](O)[C@@H](O)[C@H](O)[C@@H](O)[C@H]1O [inositol],median PASI score,[9],4.9
O=P1(N(CCCl)CCCl)NCCCO1 (stereo not drawn) [Cyclophosphamide],"digital ulcers, average",[10]; over a period of 12 months,9 ulcers
same,"digital ulcers, average",[10]; start,7 ulcers
